Data on one compound can be found in patent US20220280423A1, “GLYMPHATIC DELIVERY BY MANIPULATING PLASMA OSMOLARITY” (University of Rochester, priority 2018, published 2022).

Entries after “also recorded” stand apart in the source; their conditions may differ. Marks after values point to notes of the source that are not given here.

Data set [1] can be described thus: Stability of ^111In-LA-DOTA complex in CSF or brain homogenate (radio-TLC). In kind it is in vitro ADME, rat. To be noted: CSF and BH, 37° C., over 48 hours. How it is done:
To obtain CSF and brain homogenate for assessing AuNP stability, rats were anesthetized with subcutaneous ketamine (100 mg/kg) and dexmedetomidine (0.5 mg/kg) and fixed to a stereotaxic frame after verification of loss of response to painful stimuli. The cisterna magna was exposed and CSF was carefully drawn using a syringe and a 30 G needle. The rats were euthanized, the brains were quickly dissected and cut in four quarters. Each quarter was mixed in 5 mL phosphate-buffered saline (PBS) using a homogenizer. Both the CSF and brain homogenates were stored at —80° C. To allow UV-VIS characterization at low radioactivity level, radiolabeled AuNPs were mixed with non-radiolabeled, PEG-coated AuNPs from the same batch (see section 2.2). The gold concentration was the same in both AuNPs samples (0.373 mg/mL). […]
Free ^111In-LA-DOTA: The following mixtures were prepared and analyzed: 1) CSF (30 μL)+^111In-LA-DOTA complex solution (30 μL), 2) Brain homogenate (15 μL)+PBS (15 μL)+^111In-LA-DOTA complex solution (30 μL). […] The mixtures were incubated at 37° C. and samples were analyzed by radio-TLC at 0, 4, 24, and 48 hours. […]

A short description of data set [2]: Head-focused SPECT/CT of ^111In—AuNP or ^111In-LA-DOTA infused to the cisterna magna, 0-3 h. In kind it is in vivo, Sprague-Dawley rats. Details: AUC0-3 h Striatum / AUC0-3 h Thalamus / AUC0-3 h Intracranial / AUC0-3 h Brain / AUC0-3 h Cervical spine / AUC0-3 h Nasal turbinates / AUC0-3 h Pharyngeal lymph vessel / AUC0-3 h Deep lymph nodes: concentration or dose not given beside the values. The conditions noted are these: VEH (isotonic saline i.p.). How it is done: Cisterna magna cannulation was performed as previously described with minor modifications (Xavier et al. J Vis Exp e57378-e57378 (2018)). Rats were anesthetized with a mixture of ketamine (100 mg/kg) and dexmedetomidine (0.5 mg/kg), administered subcutaneously in a volume of 2 ml/kg. After verification of loss of response to toe pinch, animals were placed in a stereotaxic frame and the neck slightly flexed (30°). The atlanto-occipital membrane overlying the cisterna magna was surgically exposed and a 30 G short-bevelled dental needle connected to PE10 tubing was carefully inserted into the intrathecal space. The catheter was fixed to the dura with cyanoacrylate glue and dental cement.
For post-operative analgesia, rats that were imaged for 24 hours received 5 mg/kg carprofen (Rimadyl® vet, 50 mg/mL, Orion Pharma, Espoo, Finland) s.c. at the beginning of surgery. Temperature was monitored and normothermia was maintained with a heating pad. […] The total volume of 32 μL was infused over 20 minutes. Five minutes before the AuNP infusion started, rats received either hypertonic saline (1 M, 20 mL/kg i.p.) or isotonic saline (0.154 M, 20 mL/kg i.p.). In the MRI experiments, all rats received a hypertonic saline injection, and the infusion rate of Gd-labelled nanoparticles was the same, but the total infusion volume was 80 μL.
Radioactivity of the infused dose was measured with VIK-202 dose calibrator (Comecer, Joure, The Netherlands). The Vector4CT (MILabs, Utrecht, Netherlands) system was used for SPECT/CT imaging. SPECT images were acquired with a high energy ultra high resolution rat 1.8 mm pinhole collimator (HE-UHR-RM 1.8 mm ph). Acquired images were reconstructed using Similarity-Regulated Ordered Subsets […] (SROSEM) with a voxel size of 0.6 mm and 5 iterations. Both decays at the 111-In photopeaks (±20%) and background at 20% outside each photopeak window) were individually used for the reconstruction. Two highly accurate energy dependent system matrices for iterative image reconstruction (SROSEM' Vaissier, P. E. B., Beekman, F. J. & Goorden, M. C. Similarity-regulation of OS-EM for accelerated SPECT reconstruction. Physics in Medicine and Biology 61, 4300-4315 (2016)) were used to minimize artifacts in ^111In imaging with high local uptake and no background activity in surrounding structures. In each matrix the effects of energy dependent pinhole penetration (calculated using a ray tracer, Goorden et al. Physics in Medicine and Biology 61, 3712-3733 (2016)) and intrinsic detector resolution with depth of interaction (DOI) effects in the crystal were modelled. The DOI effect was calculated using GATE Monte Carlo simulations (Jan, S. et al. Physics in Medicine and Biology 49, 4543-4561 (2004)) that was stored in tables and used in the raytracer. Matrices were generated for 171 keV and 245 keV photons and were used during the reconstruction from projections of the corresponding energy peaks. The resulting SPECT images were then added and averaged to obtain the final ^111In image. Head and full-body CT images were acquired directly after the SPECT scans in the same imaging session. SPECT data were attenuation corrected, decay corrected to the half-life of ^111In, and corrected for injected activity, with each voxel representing the percentage of the injected dose per cm^3 (%ID/cm^3).
Head and full-body CT images from each imaging session were nonlinearly registered using Advanced Normalization Tools (ANTs) to the appropriate population-based CT template (described below). Regions of interest (ROIs) were then either drawn manually in on individual CT images, manually in the template space, or were computed automatically in the case of the delineation between CSF and brain described below. Manual ROIs were drawn using ITK-SNAP software. Spherical ROIs (Ø 1.4 mm) for striatum and thalamus were placed using the in-house MRI template as reference. […]

Take `O=C(O)CN1CCN(CC(=O)O)CCN(CC(=O)NCCNC(=O)CCCCC2CCSS2)CCN(CC(=O)O)CC1` (stereo not drawn) [^111In-LA-DOTA, 2,2′,2″-(10-(2-((2-(5-(1,2-dithiolan-3-yl)pentanamido)ethyl)amino)-2-oxoethyl)-1,4,7,10-tetraazacyclododecane-1,4,7-triyl)triacetic acid, metal not drawn]: the “stability of the chelate (release of ^111In from the chelator)” value in data set [1] is reported as “stable; also recorded: did not result in appreciable destabilization”. In addition, in data set [2], the “AUC0-3 h Brain” value is recorded as 84.2 ± 13.6^c % ID · h, the “AUC0-3 h CSF” value was 40.2 ± 9.4 % ID · h, the “AUC0-3 h Cervical spine” value was found to be 126.5 ± 30.32 % ID/cm^3 · h and the “AUC0-3 h Deep lymph nodes” value is on record as 0.1 ± 0.1^f % ID/cm^3 · h. Further, in data set [2], the “AUC0-3 h Nasal turbinates” value is recorded as 2.4 ± 1.4^b % ID/cm^3 · h, the “AUC0-3 h Pharyngeal lymph vessel” value is reported as 0.5 ± 0.1^d % ID/cm^3 · h, the “AUC0-3 h Striatum” value is recorded as 4.5 ± 1.5 % ID/cm^3 · h and the “AUC0-3 h Thalamus” value is 7.5 ± 4.2^k % ID/cm^3 · h. In addition, in data set [2], the “Peak tracer mass Brain” value came to 39.6 ± 4.3 % ID, the “Peak tracer mass CSF” value is 27.3 ± 3.5 % ID, the “Peak tracer mass Intracranial” value was 65.4 ± 6.0 % ID and the “Peak tracer mass Striatum” value was 4.3 ± 1.6 % ID/cm^3. Also, in data set [2], the “Peak tracer mass Thalamus” value is 8.3 ± 3.1^n % ID/cm^3, the “Residual after 3 h Brain” value was 20.6 ± 5.0^g % ID, the “Residual after 3 h CSF” value is reported as 4.9 ± 1.3 % ID and the “Residual after 3 h Intracranial” value stood at 25.5 ± 6.2 % ID. Besides, the “AUC0-3 h Intracranial” value in data set [2] (intracisternal infusion, rats) turned out to be 124.4 ± 22.5 % ID · h.
